Series [1] in a line: in vitro. The following applies: human, hepg2 cells.
A further series relates to SARS-CoV-2. The series is described as follows: microbe, parasite or virus in culture. The class given is cell-based, SARS-CoV-2 strain USA-WA1/2020. The following applies: Severe acute respiratory syndrome coronavirus 2, HeLa-ACE2, 24 h, read-out: SARS-CoV-2 / HeLa-ACE2 EC50.
The next series deals with DENV-2. The series is described as follows: microbe, parasite or virus in culture. The class given is cell-based, DENV-2 16681. The following applies: Dengue virus, DENV2, HepG2, 24 h, read-out: DENV-2 / HepG2 EC50.
The nature of series [2]: in vitro. The note with it: human, hela-ace2 cells.
Another series deals with CHIKV. Kind of series: microbe, parasite or virus in culture. Format: cell-based, CHIKV strain 181/25. The note with it: Chikungunya virus, HepG2, 24 h, read-out: CHIKV / HepG2 EC50.
A further series relates to RSV A2. Kind of series: microbe, parasite or virus in culture. The class given is cell-based. The following applies: human respiratory syncytial virus, HEp-2, 72 h, read-out: RSV A2 / Hep2 EC50.
Series [3] can be described thus: in vitro. The following applies: human, hep2 cells.
For another series, the system named is YFV. Kind of series: microbe, parasite or virus in culture. Format: cell-based, YFV strain 17D. The following applies: Yellow fever virus, HepG2, 24 h, read-out: YFV / HepG2 EC50.
The next series deals with HRV 14. Kind of series: microbe, parasite or virus in culture. The class given is cell-based, Human Rhinovirus 14 strain 1059. The note with it: Rhinovirus B, H1-HeLa, 48 h, read-out: HRV / H1 HeLa B 14 EC50.
For a further series, the system named is ZIKV. The series is described as follows: microbe, parasite or virus in culture. The class given is cell-based, ZIKV MR766. The following applies: Zika virus, HepG2, 24 h, read-out: ZIKV / HepG2 EC50.
A short description of series [4]: in vitro. The note with it: human, h1 hela cells.
In another series the test system is HRV 16. Kind of series: microbe, parasite or virus in culture. The note with it: Rhinovirus A, H1-HeLa, 48 h, read-out: HRV / H1 HeLa A16 EC50. The class given is cell-based, Human Rhinovirus 16 strain 11757.
The test system of another series is HCMV. Kind of series: HCMV/HFF antiviral assay. The class given is cell-based. The following applies: Human betaherpesvirus 5, HFF.
The nature of another series: Cytotoxicity, HFF. The note with it: human, hff cells; read-out: HCMV/HFF CC50. The class given is cell-based.

For the molecule `[N-]=[N+]=N[C@]1(CO)O[C@@H](n2ccc3c(N)ncnc32)[C@H](O)[C@@H]1O` [Example 2, (2R,3S,4R,5R)-5-(4-amino-7H-pyrrolo[2,3-d]pyrimidin-7-yl)-2-azido-2-(hydroxymethyl)tetrahydrofuran-3,4-diol], the CC50 at 72 h in “in vitro [1]” is over 99 µM. The EC50 with SARS-CoV-2, with DENV-2 and with CHIKV was over 10 µM throughout. The CC50 at 24 h in the series “in vitro [2]” is over 99 µM.
`OC[C@]1(F)O[C@@H](n2ccc3c(Cl)ncnc32)[C@H](O)[C@@H]1O` [Example 5, (2R,3S,4R,5R)-5-(4-chloro-7H-pyrrolo[2,3-d]pyrimidin-7-yl)-2-fluoro-2-(hydroxymethyl)tetrahydrofuran-3,4-diol]: the CC50 at 72 h in the series “in vitro [1]” is over 99 µM. The EC50 in the series with RSV A2 was over 10 µM; in the series on SARS-CoV-2, over 10 µM; in the series with DENV-2 it was 0.1 to 1 µM; in the series with YFV, 1 to 10 µM; in the series with HRV 14 it was 1 to 10 µM; in the series on ZIKV it was 1 to 10 µM. Besides, the CC50 in “in vitro [3]” and in “in vitro [4]” was over 99 µM throughout. The molecule further gave a CC50 at 24 h in “in vitro [2]” of over 99 µM.
Consider `Nc1ncnc2c1c(CO)cn2[C@@H]1O[C@](F)(CO)[C@@H](O)[C@H]1O` [Example 17, (2S,3S,4R,5R)-5-(4-amino-5-(hydroxymethyl)-7H-pyrrolo[2,3-d]pyrimidin-7-yl)-2-fluoro-2-(hydroxymethyl)tetrahydrofuran-3,4-diol], for which the CC50 at 72 h in the series “in vitro [1]” lay in the range of 10 to 99 µM. Moreover, the EC50 in the series on SARS-CoV-2, in the series with DENV-2 and with CHIKV was over 10 µM in each case. Further, the CC50 at 24 h in “in vitro [2]” is over 99 µM.
In “in vitro [1]”, `Nc1ncnn2c([C@@H]3O[C@](F)(CO)[C@@H](O)[C@H]3O)cnc12` [Example 19, (2S,3S,4R,5S)-5-(4-aminoimidazo[2,1-f][1,2,4]triazin-7-yl)-2-fluoro-2-(hydroxymethyl)tetrahydrofuran-3,4-diol] registered a CC50 at 72 h of under 1 µM. Also, the EC50 in the series on RSV A2 is over 10 µM; in the series with SARS-CoV-2, 1 to 10 µM; with HRV 16, over 10 µM; with DENV-2 it was 0.1 to 1 µM; in the series with CHIKV it was 0.1 to 1 µM; with HRV 14, over 10 µM. Also, the CC50 in the series “in vitro [3]” and in “in vitro [4]” was 1 to 10 µM each time. In the series “in vitro [2]”, this molecule registered a CC50 at 24 h of 1 to 10 µM.
Consider `Nc1ncnc2c1ccn2[C@@H]1O[C@@](CO)(CF)[C@@H](O)[C@H]1O` [Example 20, (2R,3S,4R,5R)-5-(4-amino-7H-pyrrolo[2,3-d]pyrimidin-7-yl)-2-(fluoromethyl)-2-(hydroxymethyl)tetrahydrofuran-3,4-diol], for which the CC50 at 72 h in the series “in vitro [1]” is over 99 µM. The EC50 with HCMV, in the series on RSV A2, in the series with SARS-CoV-2, in the series with HRV 16, with DENV-2 and with CHIKV was over 10 µM in each case. For the same molecule, the EC50 in the series with HRV 14 was over 10 µM. The CC50 is 10 to 99 µM in “in vitro [3]”; over 99 µM in “Cytotoxicity, HFF”; over 99 µM in “in vitro [4]”. The same molecule yielded a CC50 at 24 h in the series “in vitro [2]” of 10 to 99 µM.
In turn, `COc1ncnc2c1c(F)cn2[C@@H]1O[C@](F)(CO)[C@@H](O)[C@H]1O` [Example 22, (2S,3S,4R,5R)-2-fluoro-5-(5-fluoro-4-methoxy-7H-pyrrolo[2,3-d]pyrimidin-7-yl)-2-(hydroxymethyl)tetrahydrofuran-3,4-diol] registered a CC50 at 72 h in the series “in vitro [1]” of 1 to 10 µM. In addition, the EC50 with HCMV is 1 to 10 µM; with RSV A2, over 10 µM; in the series with SARS-CoV-2, 1 to 10 µM; in the series on HRV 16, over 10 µM; in the series with DENV-2, 0.1 to 1 µM; in the series on YFV, 0.1 to 1 µM. Moreover, the EC50 was over 10 µM in the series with HRV 14 and 1 to 10 µM in the series on ZIKV. For the same molecule, the CC50 in the series “in vitro [3]” is 10 to 99 µM; in “Cytotoxicity, HFF” it was over 99 µM; in the series “in vitro [4]” it was 10 to 99 µM. Besides, in the series “in vitro [2]”, the CC50 at 24 h is 1 to 10 µM.
In the case of `Nc1ncnc2c1ccn2[C@@H]1C[C@](F)(CO)[C@@H](O)[C@H]1O` [Example 30, (1S,2S,3S,5R)-5-(4-amino-7H-pyrrolo[2,3-d]pyrimidin-7-yl)-3-fluoro-3-(hydroxymethyl)cyclopentane-1,2-diol], the CC50 at 72 h in “in vitro [1]” was 10 to 99 µM. Further, the EC50 was 0.1 to 1 µM with RSV A2; over 10 µM with SARS-CoV-2; over 10 µM in the series on HRV 16; over 10 µM in the series on DENV-2; over 10 µM in the series on CHIKV; over 10 µM with HRV 14. The CC50 in “in vitro [3]” was in the range of 1 to 10 µM; in the series “in vitro [4]”, 10 to 99 µM. This molecule displayed a CC50 at 24 h in “in vitro [2]” of 10 to 99 µM.
For `Nc1nc(F)nc2c1ncn2[C@@H]1O[C@](F)(CO)[C@@H](O)[C@H]1O` [Example 31, (2S,3S,4R,5R)-5-(6-amino-2-fluoro-9H-purin-9-yl)-2-fluoro-2-(hydroxymethyl)tetrahydrofuran-3,4-diol], the CC50 at 72 h in the series “in vitro [1]” is under 1 µM. The EC50 with RSV A2 was over 10 µM; with SARS-CoV-2, 1 to 10 µM; with HRV 16, over 10 µM; in the series on DENV-2 it was 0.1 to 1 µM; in the series with CHIKV it was 0.1 to 1 µM; in the series on HRV 14, over 10 µM. Moreover, the CC50 in “in vitro [3]” is under 1 µM; in the series “in vitro [4]” it was 1 to 10 µM. The molecule further yielded a CC50 at 24 h in the series “in vitro [2]” of 1 to 10 µM.
In the case of `N#C[C@]1(CO)O[C@@H](n2ccc3c(N)ncnc32)[C@H](O)[C@@H]1O` [Example 32, (3S,4R,5R)-5-(4-amino-7H-pyrrolo[2,3-d]pyrimidin-7-yl)-3,4-dihydroxy-2-(hydroxymethyl)tetrahydrofuran-2-carbonitrile], the CC50 at 72 h in “in vitro [1]” was over 99 µM. The EC50 with RSV A2, in the series with SARS-CoV-2, with HRV 16, in the series on DENV-2, with CHIKV and with HRV 14 was over 10 µM each time. Also, the CC50 in the series “in vitro [3]” and in the series “in vitro [4]” was over 99 µM throughout. In the series “in vitro [2]”, this molecule came in with a CC50 at 24 h of over 99 µM.
Regarding `CNc1ncnc2c1c(F)cn2[C@@H]1O[C@](F)(CO)[C@@H](O)[C@H]1O` [Example 35, (2S,3S,4R,5R)-2-fluoro-5-(5-fluoro-4-(methylamino)-7H-pyrrolo[2,3-d]pyrimidin-7-yl)-2-(hydroxymethyl)tetrahydrofuran-3,4-diol], the CC50 at 72 h in the series “in vitro [1]” lay in the range of 10 to 99 µM. Moreover, the EC50 with RSV A2 is over 10 µM; in the series on SARS-CoV-2, over 10 µM; in the series on DENV-2, over 10 µM; with YFV, 1 to 10 µM; with HRV 14 it was over 10 µM; in the series with ZIKV, over 10 µM. Besides, the CC50 in “in vitro [3]” and in “in vitro [4]” was 10 to 99 µM throughout. In addition, the CC50 at 24 h in “in vitro [2]” is over 99 µM.
In the series “in vitro [1]”, `Nc1nc2c(ncn2[C@H]2C[C@H](O)[C@@](F)(CO)O2)c(=O)[nH]1` [Example 40, 2-amino-9-((2R,4S,5S)-5-fluoro-4-hydroxy-5-(hydroxymethyl)tetrahydrofuran-2-yl)-1,9-dihydro-6H-purin-6-one] yielded a CC50 at 72 h of over 99 µM. Besides, the EC50 with SARS-CoV-2, with DENV-2, in the series with YFV and in the series on ZIKV was over 10 µM each time. Further, in the series “in vitro [2]”, the CC50 at 24 h is over 99 µM.
Turning to `CC(C)OC(=O)[C@H](C)N[P@](=O)(OC[C@@]1(F)O[C@@H](n2ccc3c(N)ncnc32)[C@H](O)[C@@H]1O)Oc1ccccc1` [Example 48, isopropyl ((S)-(((2S,3S,4R,5R)-5-(4-amino-7H-pyrrolo[2,3-d]pyrimidin-7-yl)-2-fluoro-3,4-dihydroxytetrahydrofuran-2-yl)methoxy)(phenoxy)phosphoryl)-L-alaninate], the CC50 at 72 h in “in vitro [1]” lay within 10 to 99 µM. For the same molecule, the EC50 fell in the range of 1 to 10 µM with SARS-CoV-2; 1 to 10 µM in the series with HRV 16; 0.1 to 1 µM with DENV-2; 1 to 10 µM in the series on YFV; 1 to 10 µM with HRV 14; 1 to 10 µM in the series on ZIKV. Also, in “in vitro [2]”, the CC50 at 24 h was in the range of 10 to 99 µM. Further, the CC50 in “in vitro [4]” lay within 10 to 99 µM.

Values taken from US20260325561A1, “4'-SUBSTITUTED NUCLEOSIDES AND NUCLEOTIDES AS ANTIVIRAL AGENTS” (THE SCRIPPS RESEARCH INSTITUTE, priority 2023, published 2026).
